# Laboratory results taken from ChEMBL document CHEMBL3217545, “Synthesis and study of 2-acetyl amino-3-[4-(2-amino-5-sulfo-phenylazo)-phenyl]-propionic acid: a new class of inhibitor for hen egg white lysozyme amyloidogenesis” (Medchemcomm, 2013).
# Active and inactive are the calls of the source. The calls are words filed in the database; no cut-off is given here.
# Legend:
# [1] = biological target: Lysozyme C (Gallus gallus) (UniProt P00698); test: Inhibition of hen egg white lysozyme fibrillization at 2 x 10^-4 M after 15 days by congo red dye-based crossed polarized optical microscopic analysis
# [2] = biological target: Lysozyme C (Gallus gallus) (UniProt P00698); test: Inhibition of hen egg white lysozyme fibrillization assessed as diameter of granular aggregate at 2 x 10^-4 M after 15 days by atomic force microscopic analysis (reference value: 50 to 80 nm)
# [3] = biological target: Lysozyme C (Gallus gallus) (UniProt P00698); test: Inhibition of beta-sheet aggregation of hen egg white lysozyme at 2 x 10^-4 M after 15 days by FT-IR spectroscopic analysis
# [4] = biological target: Lysozyme C (Gallus gallus) (UniProt P00698); test: Inhibition of beta-sheet aggregation of hen egg white lysozyme at 2 x 10^-4 M after 15 days by CD spectroscopic analysis
# [5] = biological target: Lysozyme C (Gallus gallus) (UniProt P00698); test: Inhibition of hen egg white lysozyme fibrillization at 2 x 10^-4 M up to 100 hrs by Thioflavin T-based fluorescence assay
# [6] = biological target: Lysozyme C (Gallus gallus) (UniProt P00698); test: Inhibition of hen egg white lysozyme fibrillization at 2 x 10^-4 M after 2 weeks by congo red dye-based UV/Vis spectroscopic analysis
# [7] = biological target: Lysozyme C (Gallus gallus) (UniProt P00698); test: Binding affinity to hen egg white lysozyme assessed as formation of enzyme/compound complex formation at 2 x 10^-4 M by TCSPC spectroscopic analysis
# [8] = biological target: Lysozyme C (Gallus gallus) (UniProt P00698); test: Binding affinity to hen egg white lysozyme at 2 x 10^-4 M by fluorescence spectroscopic analysis
# [9] = biological target: Lysozyme C (Gallus gallus) (UniProt P00698); test: Binding affinity to hen egg white lysozyme at 2 x 10^-4 M by UV/Vis spectroscopic analysis
# [10] = Cytotoxicity against neuronal cells (unknown origin) by MTT assay; format: cell-based; conditions: neuron
# Sequence of Lysozyme C (Gallus gallus) (P00698 whole entry): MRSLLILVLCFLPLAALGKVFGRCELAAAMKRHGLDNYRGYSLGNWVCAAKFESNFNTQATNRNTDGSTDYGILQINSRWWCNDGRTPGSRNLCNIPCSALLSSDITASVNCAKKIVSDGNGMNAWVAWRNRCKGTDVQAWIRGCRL
SMILES,inhibition [1],Activity [2] [nm],inhibition [3],inhibition [4],inhibition [5],inhibition [6],Activity [7],Activity [8],Activity [9],Activity [10]
CC(=O)N[C@@H](Cc1ccc(/N=N/c2cc(S(=O)(=O)O)ccc2N)cc1)C(=O)O,Active,100,Active,Active,Active,Active,Active,Active,Active,Non-toxic
Nc1ccc(S(=O)(=O)O)cc1/N=N/c1ccc(C[C@H](NC(=O)C(F)(F)F)C(=O)O)cc1,Active,100,Active,Active,Active,Active,Active,Active,Active,Non-toxic
